Assay results: the supplement of paper PMC10307832

Legend:
Assay in all cases: relative viability (nuclei count vs DMSO), 5 days (fraction); higher = more cells survive
[1] = compound: CN(C)CC1=CC(=CC=C1)N=C(C2=CC=CC=C2)C3=C(NC4=C3C=CC(=C4)C(=O)N(C)C)O + CC(=O)c1c(C)c2cnc(Nc3ccc(N4CCNCC4)cn3)nc2n(C2CCCC2)c1=O [Palbociclib] (partner 0.5 µM)
Procedure, shortened: (§1)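 Medians of duplicate plates are given as relative viability. That measure is the nuclei count in treated wells divided by the count in vehicle wells. Counts were taken on 4× images of lung cancer cell lines in 1536-well plates, 5 days after pin-tool dosing the day after seeding with one drug alone or a fixed anchor-drug dose plus five library-drug doses (not always all listed) in √10 steps.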

[2] = compound: CN(C)CC1=CC(=CC=C1)N=C(C2=CC=CC=C2)C3=C(NC4=C3C=CC(=C4)C(=O)N(C)C)O + CS(=O)(=O)N1CCN(Cc2cc3nc(-c4cccc5[nH]ncc45)nc(N4CCOCC4)c3s2)CC1 [Pictilisib] (partner 1 µM)
Procedure, shortened: as §1

[3] = compound: CN(C)CC1=CC(=CC=C1)N=C(C2=CC=CC=C2)C3=C(NC4=C3C=CC(=C4)C(=O)N(C)C)O + N=C(N)NC(=N)NCCc1ccccc1 [Phenformin] (partner 250 µM)
Procedure, shortened: as §1

[4] = compound: CN(C)CC1=CC(=CC=C1)N=C(C2=CC=CC=C2)C3=C(NC4=C3C=CC(=C4)C(=O)N(C)C)O + Nc1ncn([C@H]2C[C@H](O)[C@@H](CO)O2)c(=O)n1 [Decitabine] (partner 2 µM)
Procedure, shortened: as §1

Cell Line | relative viability ([1]; first compound 0.08 µM) | relative viability ([1]; first compound 0.253 µM) | relative viability ([1]; first compound 0.8 µM) | relative viability ([1]; first compound 2.53 µM) | relative viability ([1]; first compound 8 µM) | relative viability ([2]; first compound 0.08 µM) | relative viability ([2]; first compound 0.253 µM) | relative viability ([2]; first compound 0.8 µM) | relative viability ([2]; first compound 2.53 µM) | relative viability ([2]; first compound 8 µM) | relative viability ([3]; first compound 0.08 µM) | relative viability ([3]; first compound 0.253 µM) | relative viability ([3]; first compound 0.8 µM) | relative viability ([3]; first compound 2.53 µM) | relative viability ([3]; first compound 8 µM) | relative viability ([4]; first compound 0.08 µM) | relative viability ([4]; first compound 0.253 µM) | relative viability ([4]; first compound 0.8 µM) | relative viability ([4]; first compound 2.53 µM) | relative viability ([4]; first compound 8 µM)
A-427 | 0.558 | 0.5 | 0.508 | 0.505 | 0.465 | 0.751 | 0.693 | 0.902 | 0.803 | 0.706 | 0.378 | 0.385 | 0.308 | 0.257 | 0.266 | 0.562 | 0.614 | 0.547 | 0.554 | 0.534
LU99A | 0.392 | 0.417 | 0.457 | 0.401 | 0.351 | 0.322 | 0.33 | 0.366 | 0.301 | 0.305 | 0.737 | 0.874 | 0.862 | 0.655 | 0.757 | 0.925 | 0.79 | 0.885 | 0.927 | 0.673
HCC-366 | 0.406 | 0.364 | 0.404 | 0.412 | 0.341 | 0.177 | 0.179 | 0.166 | 0.111 | 0.127 | 0.648 | 0.612 | 0.641 | 0.566 | 0.601 | 0.385 | 0.36 | 0.34 | 0.333 | 0.341
NCI-H661 | 0.435 | 0.381 | 0.391 | 0.392 | 0.429 | 0.4 | 0.465 | 0.387 | 0.498 | 0.657 | 0.274 | 0.284 | 0.244 | 0.293 | 0.262 | 0.537 | 0.55 | 0.477 | 0.554 | 0.584
NCI-H1975 | 0.646 | 0.398 | 0.456 | 0.574 | 0.339 | 0.306 | 0.324 | 0.245 | 0.257 | 0.275 | 0.378 | 0.407 | 0.357 | 0.393 | 0.36 | 0.45 | 0.409 | 0.368 | 0.397 | 0.381
NCI-H2087 | 0.233 | 0.236 | 0.214 | 0.289 | 0.263 | 0.963 | 0.786 | 0.926 | 0.848 | 0.806 | 0.478 | 0.522 | 0.403 | 0.48 | 0.31 | 0.385 | 0.368 | 0.267 | 0.266 | 0.236
COR-L23 | 0.321 | 0.329 | 0.379 | 0.269 | 0.326 | 0.811 | 0.709 | 0.858 | 0.637 | 0.656 | 0.495 | 0.413 | 0.402 | 0.423 | 0.421 | 0.442 | 0.422 | 0.433 | 0.429 | 0.401
NCI-H1792 | 0.666 | 0.638 | 0.673 | 0.641 | 0.665 | 0.303 | 0.248 | 0.27 | 0.207 | 0.18 | 0.255 | 0.211 | 0.357 | 0.179 | 0.231 | 0.506 | 0.594 | 0.585 | 0.484 | 0.602
NCI-H441 | 0.217 | 0.231 | 0.2 | 0.198 | 0.247 | 0.451 | 0.471 | 0.484 | 0.481 | 0.335 | 0.828 | 0.816 | 0.784 | 0.878 | 0.886 | 0.248 | 0.282 | 0.282 | 0.237 | 0.221
COR-L 105 | 0.407 | 0.4 | 0.362 | 0.379 | 0.407 | 0.356 | 0.381 | 0.39 | 0.377 | 0.332 | 0.464 | 0.546 | 0.427 | 0.455 | 0.478 | 1.12 | 0.621 | 0.635 | 0.667 | 0.628
HCC-827 | 0.516 | 0.385 | 0.38 | 0.52 | 0.472 | 1 | 1.05 | 0.863 | 1.06 | 0.8 | 0.374 | 0.404 | 0.323 | 0.396 | 0.356 | 0.334 | 0.349 | 0.305 | 0.367 | 0.341
NCI-H2126 | 0.373 | 0.362 | 0.286 | 0.363 | 0.36 | 0.451 | 0.518 | 0.451 | 0.541 | 0.507 | 0.522 | 0.553 | 0.542 | 0.511 | 0.557 | 0.568 | 0.602 | 0.598 | 0.606 | 0.633
